Each molecule was assayed against T1, NK-3 receptor (Homo sapiens, UniProt P29371) (assay: NK3 receptor binding assay (displacement of 125I-methylPhe7-neurokinin B)). Conditions: membranes of Chinese hamster ovary cells expressing cloned human NK-3 receptor; 0.15 nM 125I-methylPhe7-neurokinin B; 2 hours at 4° C.
T1 construct: expressed in transfected cells; total cellular membranes used
T1 sequence (P29371 1-465): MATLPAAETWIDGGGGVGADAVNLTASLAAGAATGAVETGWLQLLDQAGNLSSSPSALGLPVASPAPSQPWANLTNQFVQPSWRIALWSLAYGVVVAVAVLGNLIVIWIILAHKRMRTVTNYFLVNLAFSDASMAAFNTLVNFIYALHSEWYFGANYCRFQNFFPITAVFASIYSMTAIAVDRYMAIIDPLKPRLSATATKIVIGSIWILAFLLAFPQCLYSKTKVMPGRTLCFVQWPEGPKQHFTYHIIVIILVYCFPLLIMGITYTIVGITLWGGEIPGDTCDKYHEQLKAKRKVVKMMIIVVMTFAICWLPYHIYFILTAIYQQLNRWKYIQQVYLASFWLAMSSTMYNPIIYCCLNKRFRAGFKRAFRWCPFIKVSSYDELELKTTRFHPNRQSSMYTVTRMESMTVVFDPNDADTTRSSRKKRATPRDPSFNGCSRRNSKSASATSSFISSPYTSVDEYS
Experimental: The following assay is a standard assay of NK3 receptor binding, which is used to determine the NK-3 receptor binding affinity of compounds.
Assays are performed as described in Krause et al (Proc. Natl. Acad. Sci. USA 94: 310–315, 1997). The NK-3 receptor complementary DNA was cloned from human hypothalamic RNA using standard procedures. The receptor cDNA was inserted into the expression vector pM^2 to transfect the mammalian Chinese hamster ovary cell line, and a stably expressing clonal cell line was isolated, characterized and used for the current experiments. Cells are grown in minimal essential medium alpha containing 10% fetal bovine serum and 0.8 mg G418 per ml. Cells were liberated from cell culture plates with No-zyme (PBS base, JRH Biosciences), and harvested by low speed centrifugation. The cell pellet was homogenized in TBS (0.05 m TrisHCl, 120 mM NaCl, pH 7.4) with a Polytron homogenizer at setting 5 for 20 seconds, and total cellular membranes were isolated by centrifugation at 47,500×g for 10 minutes. The membrane pellet was resuspended by homogenization with the Polytron as above, and the membranes were isolated by centrifugation at 47,500×g for 10 minutes. This final membrane pellet was resuspended in TBS at a protein concentration of 350 μg/ml.
Receptor binding assays contain a total volume of 200 μl containing 50 μg membrane protein, 0.15 nM ^125I-methylPhe^7-neurokinin B, drug or blocker in TBS containing 1.0 mg/ml bovine serum albumen, 0.2 mg/ml bacitracin, 20 ug/ml leupeptin and 20 μg/ml chymostatin. Incubations are carried out for 2 hours at 4° C., and the membrane proteins are harvested by passing the incubation mixture by rapid filtration over presoaked GF/B filters to separate bound from free ligand. […] After filtration of the incubation mixture, filters are rinsed 4 times with ice-cold TBS containing 0.01% sodium dodecyl sulfate and counted in a β-plate scintillation counter. […] Data are collected in duplicate determinations, averaged, and the percent inhibition of total specific binding is calculated. […]

SMILES	IC50 [nM]
CC[C@H](NC(=O)c1cc(-c2ccccc2)nc2ccncc12)c1ccccc1 [Compound 1]	50
CC[C@H](NC(=O)c1cc(-c2ccccc2)nc2ccsc12)c1ccccc1 [Compound 2]	80
CC[C@H](NC(=O)c1cc(-c2ccccc2)nc2ncccc12)c1ccccc1 [Compound 3]	100
